{"source": "ChEMBL document CHEMBL1201862", "about": "“PubChem BioAssay data set” (2004)", "key": {"[1]": {"test": "Shn3 3'UTR reporter signal decrease – cell-based, Clone20 osteoblasts, firefly luciferase, cherry-pick, set 2, Schnurri-3 inhibitor project, dose response (AID 720490);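 note: actives lower the luminescence signal as inhibitors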", "assay_type": "functional"}, "[2]": {"test": "reduction of Shn3 3'UTR-driven luciferase in osteoblasts – cell-based, Clone20 osteoblasts, firefly luciferase, cherry-picked, dose response (AID 624132)", "assay_type": "functional"}, "[3]": {"test": "loss of viability in HepG2 cells – cell-based, CellTiter-Glo, cherry-picked, cytotoxicity control for Shn3 inhibitor project, dose response (AID 624134)", "assay_type": "functional"}, "[4]": {"test": "non-specific 3'UTR reporter inhibition in Clone20-Shn3RL – cell-based, Renilla luciferase, cherry-picked, counter-screen for Shn3 inhibitor project, dose response (AID 624133)", "assay_type": "functional"}, "[5]": {"target": "Prothrombin (Homo sapiens, UniProt P00734)", "test": "Thrombin 1536 HTS Dose Response Confirmation. [Related pubchem assays: 1046 (Thrombin 1536 HTS; hits were confirmed in this assay)]", "assay_type": "functional"}, "[6]": {"target": "Solute carrier family 12 member 2/member 5 (Homo sapiens, UniProt P55011+Q9H2X9)", "test": "KCC2 and NKCC1 inhibition by rubidium flux, cell-based, NKCC1 counter-screen (AID 1734)", "assay_type": "functional, HEK293"}, "[7]": {"target": "Kallikrein-7 (Homo sapiens, UniProt P49862)", "sequence (P49862 whole entry)": "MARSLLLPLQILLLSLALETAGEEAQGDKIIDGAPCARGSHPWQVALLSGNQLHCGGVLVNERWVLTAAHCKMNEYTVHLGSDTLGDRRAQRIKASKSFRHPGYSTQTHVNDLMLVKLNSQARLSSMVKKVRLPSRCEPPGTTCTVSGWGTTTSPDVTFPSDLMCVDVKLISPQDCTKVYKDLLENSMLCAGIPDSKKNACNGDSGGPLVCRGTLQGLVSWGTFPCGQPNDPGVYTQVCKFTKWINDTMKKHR", "test": "Fluorescence Intensity-based biochemical primary high throughput dose response assay to identify activators of kallikrein-7 (K7) zymogen."}, "[8]": {"target": "T1, Small ubiquitin-related modifier 1 (Homo sapiens, UniProt P63165)", "T1 sequence (P63165 whole entry)": "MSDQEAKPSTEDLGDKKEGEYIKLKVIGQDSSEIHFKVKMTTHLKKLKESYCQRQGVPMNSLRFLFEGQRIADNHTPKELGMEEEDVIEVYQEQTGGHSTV", "test": "SUMO1 protein interaction blockers, potency – biochemical, fluorescence polarization, uHTS hits, dose response (AID 624382)", "assay_type": "functional", "settings": "read-out: IC50_Mean"}, "[9]": {"target": "T1, Small ubiquitin-related modifier 1", "test": "SUMO1 protein-protein binding blockers, potency – biochemical, FRET, dose response (AID 624383)", "assay_type": "functional", "settings": "read-out: IC50_Mean"}, "[10]": {"target": "Paired box protein Pax-8 (Homo sapiens, UniProt Q06710)", "sequence (Q06710 whole entry)": "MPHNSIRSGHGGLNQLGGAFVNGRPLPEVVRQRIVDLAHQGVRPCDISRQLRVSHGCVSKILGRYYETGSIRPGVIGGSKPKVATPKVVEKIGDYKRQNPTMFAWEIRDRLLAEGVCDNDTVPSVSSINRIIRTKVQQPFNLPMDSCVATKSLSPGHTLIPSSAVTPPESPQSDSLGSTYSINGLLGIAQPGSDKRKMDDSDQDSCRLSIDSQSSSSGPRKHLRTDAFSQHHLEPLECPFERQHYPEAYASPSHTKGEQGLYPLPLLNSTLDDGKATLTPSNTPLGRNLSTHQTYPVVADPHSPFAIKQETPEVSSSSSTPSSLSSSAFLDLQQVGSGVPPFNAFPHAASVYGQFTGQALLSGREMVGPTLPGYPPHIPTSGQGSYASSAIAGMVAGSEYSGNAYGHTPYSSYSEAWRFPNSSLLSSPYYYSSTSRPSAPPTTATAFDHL", "test": "PAX8 transcriptional activity inhibition in RMG-I – RMG-I cells, luciferase, cherry-pick, dose response (AID 687027);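 note: luciferase reporter driven by Pax8 target thyroperoxidase promoter measured by SteadyGlo luminescence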", "assay_type": "functional, cell-based"}, "[11]": {"test": "Dd2 parasite growth inhibition in erythrocytes – SYBR Green, dry powder samples, set 9, dose response (AID 1159568)", "assay_type": "functional, cell-based"}, "[12]": {"target": "T2, Oxysterols receptor LXR-beta (Homo sapiens, UniProt P55055)", "T2 sequence (P55055 whole entry)": "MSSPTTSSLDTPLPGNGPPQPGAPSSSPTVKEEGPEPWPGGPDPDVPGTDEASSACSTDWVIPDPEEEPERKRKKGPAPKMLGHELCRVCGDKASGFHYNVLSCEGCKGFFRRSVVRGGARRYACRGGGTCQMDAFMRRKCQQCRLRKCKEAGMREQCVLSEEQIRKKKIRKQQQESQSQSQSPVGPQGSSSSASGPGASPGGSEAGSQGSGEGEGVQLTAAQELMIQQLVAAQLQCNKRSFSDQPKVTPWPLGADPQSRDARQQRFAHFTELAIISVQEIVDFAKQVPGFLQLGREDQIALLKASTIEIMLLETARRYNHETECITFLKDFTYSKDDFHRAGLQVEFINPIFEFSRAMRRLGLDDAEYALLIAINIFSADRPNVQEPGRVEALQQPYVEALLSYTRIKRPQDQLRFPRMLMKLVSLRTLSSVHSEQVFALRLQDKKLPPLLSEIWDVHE", "assay_type": "functional, cell-based"}, "[13]": {"test": "cells"}, "[14]": {"test": "IC50 of insulin release inhibition, rat insulinoma INS-1E line, 5 mM glucose, cell-based (AID 1117331)", "assay_type": "functional"}, "[15]": {"test": "P. falciparum Dd2 growth inhibitors, dose response, SYBR Green, cherry-picked samples (AID 1159567)", "assay_type": "functional, cell-based"}, "[16]": {"test": "toxicity to human hepatoma HepG2 cells – cell-based, cherry-picked samples, cytotoxicity control, dose response (AID 1159577)", "assay_type": "functional"}, "[17]": {"test": "NIH3T3 cell viability loss – ATP luminescence, mouse fibroblasts, counter-screen, dose response (AID 2010);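 note: cells exposed to compound for about 90 hours before reading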", "assay_type": "functional, cell-based"}, "[18]": {"test": "cells", "remark": "listed apart in the source"}, "[19]": {"test": "Trypanosoma cruzi growth suppression in host cells – NIH3T3 host cells, beta-gal luminescence, confirmation (AID 2044);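 note: luminescent beta-galactosidase reporter signal from transgenic T. cruzi replicating inside host cells; inhibitors lower the luminescence signal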", "assay_type": "functional, cell-based"}}, "note": "Counter-ions that a name gives are not always drawn. Activity calls are given as the source filed them."}
{"smiles": "COc1cccc(-n2c(C)nc3c(cnn3-c3ccc(Cl)cc3)c2=O)c1", "values": [{"measurement": "AC50", "setting": "[1]", "value": "2.14 µM (active)"}, {"measurement": "AC50", "setting": "[2]", "value": "0.391 µM (active)"}, {"measurement": "AC50", "setting": "[3]", "value": "61.4 µM (active)"}, {"measurement": "AC50", "setting": "[4]", "value": "2.98 µM (active)"}]}
{"smiles": "O=C(NC(=S)Nn1cnnc1)c1ccccc1Cl", "values": [{"measurement": "IC50", "setting": "[5]", "value": "> 50 µM (not active)"}]}
{"smiles": "CN(Cc1ccccc1)S(=O)(=O)c1ccc(Cl)c(C(=O)NCCc2ccccn2)c1", "values": [{"measurement": "IC50", "setting": "[6]", "value": "2.5 µM (active)"}]}
{"smiles": "O=C(Cc1cc(=O)oc2cc(O)ccc12)NN=Cc1ccc(N(CCCl)CCCl)cc1", "values": [{"measurement": "EC50", "setting": "[7]", "value": "> 23.2 µM (inactive)"}, {"measurement": "IC50", "setting": "[8]", "value": "> 66.6 µM (inactive)"}, {"measurement": "IC50", "setting": "[9]", "value": "8.3 µM (active)"}]}
{"smiles": "Cc1cccn2c(=O)c3cc(C(=O)N4CCOCC4)n(C)c3nc12", "values": [{"measurement": "EC50", "setting": "[7]", "value": "> 2.58 µM (active)"}]}
{"smiles": "C[C@@H]1CN([C@@H](C)CO)C(=O)c2cc(N(C)C)ccc2O[C@@H](C)CCCCO[C@H]1CN(C)S(=O)(=O)c1ccc(F)cc1", "values": [{"measurement": "AC50", "setting": "[10]", "value": "6.76 µM (active)"}, {"measurement": "AC50", "setting": "[11]", "value": "19.4 µM (active)"}]}
{"smiles": "CCOC(=O)c1cc(-c2cccc(O)c2)oc1C", "values": [{"measurement": "EC50", "setting": "[12]", "value": "> 67.5 µM (inactive)"}, {"measurement": "EC50", "setting": "[13]", "value": "> 67.5 µM (inactive)"}]}
{"smiles": "C[C@@H](C1=C(CCN(C)C)Cc2ccccc21)c1ccccn1", "values": [{"measurement": "IC50", "setting": "[14]", "value": "8.41 µM (inactive)"}]}
{"smiles": "COc1cc(CN2C[C@@H]3N[C@H](C2)[C@H]3c2ccc(/C=C/c3ccccc3)cc2)cc(OC)c1", "values": [{"measurement": "AC50", "setting": "[15]", "value": "2.11 µM (active)"}, {"measurement": "AC50", "setting": "[16]", "value": "7.85 µM (active)"}]}
{"smiles": "C(=C\\c1ccc([C@@H]2[C@@H]3CN(Cc4nccs4)C[C@H]2N3)cc1)/c1ccccc1", "values": [{"measurement": "AC50", "setting": "[15]", "value": "3.67 µM (active)"}, {"measurement": "AC50", "setting": "[16]", "value": "7.83 µM (active)"}]}
{"smiles": "O=C(N/N=C/c1ccc([N+](=O)[O-])o1)c1cn(-c2ccccc2)nc1-c1ccccc1", "values": [{"measurement": "EC50", "setting": "[17]", "value": "> 60 µM (not active)"}, {"measurement": "EC50", "setting": "[18]", "value": "0.054 µM (active)"}, {"measurement": "EC50", "setting": "[19]", "value": "< 0.1 µM (active)"}]}
{"smiles": "C[C@@H]1CCCCO[C@@H](CN(C)S(=O)(=O)c2ccc(F)cc2)[C@H](C)CN([C@H](C)CO)C(=O)c2cc(N(C)C)ccc2O1", "values": [{"measurement": "AC50", "setting": "[11]", "value": "4.62 µM (active)"}]}
{"smiles": "CCN1CCCC(OC(=O)C(c2ccccc2)c2ccccc2)C1", "note": "(centres undefined) [PIPERIDOLATE HYDROCHLORIDE]", "values": [{"measurement": "IC50", "setting": "[14]", "value": "18.2 µM (inactive)"}]}
